Experimental data reported in patent US7122335B1, “Compounds and methods to enhance rAAV transduction” (priority 1999, dated 2006).
“Also recorded” adds a separate entry of the source. Structures can show the parent of a compound that is named as a salt. Where two headings read alike, the source gives them in different places. Peptide text beside a SMILES is read from it.

Assays:
Format in all cases: cell-based
[1] = system: primary human fibroblasts
Procedure: FIG. 6. Primary confluent fibroblasts were infected with AV.GFP3ori virus at an MOI=1000 particles/cell following treatment with brefeldin A (10 μg/ml), vinblastine (22 μM), cytochalasin B (1 μM), NH4Cl (2 mM), chloroquine (20 μm), LLnL (400 μM), and Z-LLL (4 μM), final concentration indicated in brackets. Cells were harvested at 96 hours post-infection and the transduction efficiency was compared to untreated rAAV infected cells by FACS analysis for GFP expression. To control for non-specific effects caused by toxicity of the compounds, the percentage of live cells was also assessed by the absence of propidium iodide incorporation.
80% confluent human primary fibroblasts were infected with AV.GFP3ori at an moi of 1000 DNA particles/cell. FIG. 16A depicts GFP transgene expression in the absence (left photographs) and presence of 40 μM LLnL (right photographs) at 96 hours post-infection. […] Top and bottom panels represent bright field and FITC-channel fluorescent photomicrographs, respectively. The mean (+/−SEM, N=3) percentage of cells transduced with rAAV, as measured by FACS sorting of GFP expressing cells, is presented in the bar graph of FIG. 16B. […] In this study, rAAV from infected cells was first immunoprecipitated with anti-VP1,2,3 (AAV-2 capsid) monoclonal antibody followed by Western blot detection of ubiquitin side chains using an anti-ubiquitin monoclonal antibody. […] Epithelia were infected with AV.GFP3ori (10,000 particles/cell) from the basolateral surface following treatment with ubiquitin ligase inhibitor dipeptides (0.2 mM H-Leu-Ala-OH and 0.2 mM H-His-Ala-OH).
Initial studies were performed in confluent primary human fibroblasts since dose titrations and toxicity could be quickly assessed. Selected compounds were used to treat fibroblast monolayers prior to rAAV infection. rAAV transduction was assessed at 96 hours post-infection by FACS analysis, and the percentage of dead cells was simultaneously assessed by incorporation of propidium iodide.
These tripeptides are structurally related to chloroquine but have different lipid solubility and specificity for cysteine proteases (Seglen, 1983). These molecules decrease endosomal degradation of molecules by a mechanism different than altering pH.
Transduction of polarized airway epithelial cells and primary human fibroblasts. rAAV infection of fully differentiated bronchial cells was performed as described in Duan et al. (1998). For infections from the apical surface of the airway cells, 5 μl rAAV was mixed with 50 μl of culture media and applied directly onto the apical compartment of Millicell inserts (MOI=10,000 particles/cell). During apical infection, the basolateral side of the Millicell was continuously bathed in culture media. Gene transfer to the basal side was performed by inverting Millicell inserts and applying viral vector to the bottom of the supporting filter membrane in a 50 μl volume for 2 hours. Subsequently, Millicell inserts were returned to the upright position, in the continued presence of the original viral inoculum plus an additional 450 μl of media. For both apical and basolateral infections, rAAV containing media was removed after 24 hours and replaced with either fresh culture media (for the basal side) or exposed to air (for the apical side). To test the effect of different agents on the efficiency of AAV transduction in polarized airway cells, 1 μl of each solution was mixed with AAV prior to infection of airway epithelia. Agents were usually presented during the 24 hours AAV infection period unless indicated otherwise.

[2] = system: polarized human bronchial epithelial cells; conditions: for rAAV transduction from the apical (mucosal) surface, in words: apical infection, agent at time of infection (LLnL 40 μM); for rAAV transduction from the basolateral surface with ubiquitin ligase (E3) inhibitors: both dipeptides combined, 2 mM pretreatment 60 minutes, 0.2 mM during 24 hours infection
Procedure: FIGS. 7A and 7B. Proteasome inhibitors differentially augment rAAV transduction from the apical or basolateral surfaces of airway epithelia. The efficiency and time course of rAAV transduction were evaluated in polarized airway epithelial cultures following infection with rAV.GFPori3 (MOI=10,000 particles/cell) in the presence or absence of 40 μM LLnL. Transgene expression was monitored by indirect fluorescence microscopy at the indicted time points by quantifying the mean number of GFP positive cells per 10× field (mean +/−SEM of 3 independent samples for each time point). The effect of LLnL treatment was compared between matched sets of tissue samples at each time point following infection from the apical (FIG. 7A) or basolateral (FIG. 7B) surfaces. The photomicrographs on the right side of each figure illustrate representative 20× fields for the 3 and 22 day post-infection time points.
FIG. 9. Effects of different agents on AAV transduction from the basal surface of polarized bronchial epithelia. Fully differentiated human bronchial airway epithelia were treated with the indicated agents at the time of AAV infection (MOI=10,000 particles/cell) from the basolateral surface. […] Since most of the tested agents (except for hydroxyurea) were dissolved in DMSO, a vehicle control of 1% (vol/vol) DMSO was also performed to exclude the possibility of a non-specific effect. GFP expression was monitored at 48 hours post-infection by counting the number of GFP positive cells per 10 random 10× fields in the culture dishes. The data represent the mean +/−SEM of three independent infections for each tested chemical.
FIG. 10. The proteasome inhibitor LLnL preferentially induces AAV transduction in ciliated cells. The cell types transduced by AAV were examined by alkaline phosphatase staining 3 days following basolateral infection of polarized epithelial cultures with AV.Alkphos infection (MOI=10,000 particles/cell) in the presence of or absence of 40 μM LLnL. […] 8 μm paraffin sections were used to histologically quantify the types of cells transduced. Three classifications were used, ciliated cells (with alkphos expression localized to the apical membrane and cilia), basal cells residing in the lower half of the epithelium with no contact with the lumen, and non-ciliated, columnar cells. Panel C (without LLnL) and D (with LLnL) show representative neutral red counter-stained cross-sections for each condition. The numbers of alkphos stained cells/2000 epithelial cells for the various cell types transduced by AAV are presented in panel E (mean +/−SEM from three independent Millicell insert samples).
FIGS. 11A and 11B. Optimization of LLnL-enhanced transduction in polarized bronchial epithelia. Differentiated transwell cultures were infected with AV.GFP3ori (10,000 particles/cell) from either the basolateral (FIG. 11A) or the apical (FIG. 11B) surface with the indicated treatments involving LLnL and/or EGTA. All infections were carried out for 24 hours and GFP transgene expression was monitored by indirect fluorescent microscopy at the indicated times. Data represent the mean (+/−SEM, N=6) for each experimental condition. Experiments were performed in triplicate on transwells derived from samples obtained from two different patients. […]

[3] = system: human bronchial epithelia; experiment: Southern blot of Hirt DNA for rAAV genomes in polarized airway epithelia; conditions: hypotonic EGTA treatment alone, apical infection
Procedure: FIGS. 15A–C. Examination of rAAV endocytosis by Southern blot analysis of viral DNA. Hirt DNA from AV.GFP3ori infected or mock infected (Lanes 1 and 7 in both FIGS. 15A and 15B) human bronchial epithelia were extracted for a direct examination of viral genomes by Southern blotting against a P^32-labeled EGFP probe. FIG. 15A depicts viral binding studies in the presence and absence of LLnL with or without EGTA treatment prior to apical or basolateral infection for 1 hour at 4° C. Cell surface-bound virus was completely removed by trypsin (FIG. 15A, lanes 2 through 6). To determine the amount of the surface-bound rAVV, cells were infected with AV.GFP3ori for 1 hour at 4° C. and were not treated with trypsin prior to Hirt DNA extraction. Panel A: lane 8: apical AAV infection; lane 9: apical AAV infection in the presence of LLnL; lane 10: cells were pre-treated with hypotonic EGTA prior to apical infection in the presence of LLnL; lane 11: basolateral infection; lane 12: basolateral infection in the presence of LLnL. FIG. 15B depicts the results of studies evaluating rAAV internalization from either the apical or the basolateral surface in the presence or absence of LLnL, and the internalization from the apical surface after combined treatment with hypotonic EGTA and LLnL. To detect the net amount of the internalized viral genome, all samples in FIG. 15B were treated with trypsin just before Hirt DNA was harvested. The extent of the internalized virus at 4 hours (FIG. 15B, lanes 2 through 6) and 24 hours (FIG. 15B, lanes 8 through 12) incubation at 37° C. after infection is represented by the intensity of the 1.6 kb single stranded viral genome band. FIG. 15B; lane 2; apical AAV infection for 4 hours; lane 3: apical AAV infection in the presence of LLnL for 4 hours; lane 4: cells were pre-treated with hypotonic EGTA prior to apical infection in the presence of LLnL for 4 hours; lane 5: basal infection for 4 hours; lane 6: basolateral infection in the presence of LLnL for 4 hours; lane 8: apical infection for 24 hours; lane 9: apical infection in the presence of LLnL for 24 hours; lane 10: cells were pre-treated with hypotonic EGTA prior to apical infection in the presence of LLnL for 24 hours; lane 11: basolateral infection for 24 hours; lane 12: basolateral infection in the presence of LLnL for 24 hours. […]
Molecular analysis of rAAV viral genomes owing infection of polarized airway epithelial cultures. […] Following binding, the extent of viral internalization was assessed by continuing incubations in the presence of virus at 37° C. for 4–24 hours. […] The 1.6 kb single stranded viral DNA, the 2.7 kb double stranded circular intermediate, and the 4.7 kb double stranded replication from viral genome were detected with a transgene EGFP specific probe at 5×10^6 cpm/ml. […]

[4] = confluent fibroblasts, AV.GFP3ori MOI 1000, 96 hours post-infection, brefeldin A 10 μg/ml, vinblastine 22 μM, cytochalasin B 1 μM, NH4Cl 2 mM, chloroquine 20 μm, LLnL 400 μM, Z-LLL 4 μM

Compound | rAAV transduction (GFP expression) compared to untreated rAAV infected cells [1, 4] | rAAV transduction from the apical (mucosal) surface, in words [2] | other results
C[C@H]1CCC/C=C/[C@@H]2C[C@H](O)C[C@H]2[C@H](O)/C=C/C(=O)O1 [BFA, brefeldin A] | significant enhancement of rAAV transduction |  | 
CCN(CC)CCCC(C)Nc1ccnc2cc(Cl)ccc12 (stereo not drawn) [chloroquine] | significantly inhibited rAAV transduction |  | 
CC[C@@]1(O)C(=O)OCc2c1cc1n(c2=O)Cc2cc3ccccc3nc2-1 [camptothecin] |  | none of these agents facilitated rAAV transduction from the apical surface | 
CC[C@]1(O)C[C@@H]2CN(CCc3c([nH]c4ccccc34)[C@@](C(=O)OC)(c3cc4c(cc3OC)N(C)[C@H]3[C@@](O)(C(=O)OC)[C@H](OC(C)=O)[C@]5(CC)C=CCN6CC[C@]43[C@@H]65)C2)C1 [vinblastine, vinblastine sulfate] | little effect on rAAV transduction; also recorded: did not inhibit rAAV-2 transduction |  | 
Cl.N [NH4Cl] |  |  | rAAV transduction (GFP expression) compared to untreated rAAV infected cells [1]: significantly inhibited rAAV transduction
CC(C)C[C@H](N)C(=O)N[C@@H](C)C(=O)O [H-Leu-Ala-OH] (H-Leu-Ala-OH) |  |  | rAAV transduction from the basolateral surface with ubiquitin ligase (E3) inhibitors [2]: enhanced rAAV transduction
O=c1c(-c2ccc(O)cc2)coc2cc(O)cc(O)c12 [genistein] |  | none of these agents facilitated rAAV transduction from the apical surface | 
C=C1[C@@H](C)[C@H]2[C@H](Cc3ccccc3)NC(=O)[C@]23OC(=O)/C=C/[C@H](O)CCC[C@@H](C)C/C=C/[C@H]3[C@@H]1O [cytochalasin B] | significant decrease in rAAV transduction |  | 
NC(=O)NO [hydroxyurea] |  | none of these agents facilitated rAAV transduction from the apical surface | 
O=C(O)CN(CCOCCOCCN(CC(=O)O)CC(=O)O)CC(=O)O [EGTA] |  |  | increase in persistence of AAV DNA [3]: less than 4 fold
COc1cc([C@@H]2c3cc4c(cc3[C@@H](O[C@@H]3O[C@@H]5CO[C@@H](C)O[C@H]5[C@H](O)[C@H]3O)[C@H]3COC(=O)[C@H]23)OCO4)cc(OC)c1O [etoposide] |  | none of these agents facilitated rAAV transduction from the apical surface | 
C[C@H](NC(=O)[C@@H](N)Cc1cnc[nH]1)C(=O)O [H-His-Ala-OH] (H-His-Ala-OH) |  |  | rAAV transduction from the basolateral surface with ubiquitin ligase (E3) inhibitors [2]: enhanced rAAV transduction
